Test results reported in ChEMBL document CHEMBL5614417, “Discovery of AMPs from random peptides via deep learning-based model and biological activity validation” (Eur J Med Chem, 2024).
Active and inactive are the calls of the source. Where a SMILES comes first, the peptide text is derived from it.

How the values were obtained:
Staphylococcus aureus [1] = experiment: Antibacterial activity against methicillin resistant Staphylococcus aureus 4 incubated for 18 hrs by visual inspection method; type: functional
Cell membrane [2] = experiment: Induction of cell membrane damage in Escherichia coli assessed as change in morphology by measuring numerous blebs covered membrane at 4 times MIC incubated for 5 hrs by SEM analysis; type: cell membranes
Escherichia coli [3] = experiment: Antibacterial activity against ESBL Escherichia coli 1 incubated for 18 hrs by visual inspection method; type: functional
Cell membrane [4] = experiment: Induction of cell membrane damage in Staphylococcus aureus at 4 times MIC incubated for 30 mins by PI staining based confocal laser scanning microscopic analysis; type: cell membranes
Cell membrane [5] = experiment: Induction of cell membrane damage in Escherichia coli assessed as change in morphology by measuring roughened membrane at 4 times MIC incubated for 5 hrs by SEM analysis; type: cell membranes
Staphylococcus aureus [6] = experiment: Antibacterial activity against methicillin resistant Staphylococcus aureus 2 incubated for 18 hrs by visual inspection method; type: functional
Acinetobacter baumannii [7] = experiment: Antibacterial activity against Acinetobacter baumannii ATCC 19606 incubated for 18 hrs by visual inspection method; type: functional
Cell membrane [8] = experiment: Disruption of outer membrane integrity in Escherichia coli assessed as increase in fluorescence intensity by measuring NPN uptake measured every min for 15 mins by fluorescence based analysis; type: cell membranes
Cell membrane [9] = experiment: Induction of cell membrane damage in Staphylococcus aureus assessed as decrease in red/green fluorescence ratio by DiOC2(3) fluorescent probe based assay; type: cell membranes
Staphylococcus aureus [10] = experiment: Antibacterial activity against methicillin resistant Staphylococcus aureus 1 incubated for 18 hrs by visual inspection method; type: functional
Acinetobacter baumannii [11] = experiment: Antibacterial activity against multidrug resistant Acinetobacter baumannii 2 incubated for 18 hrs by visual inspection method; type: functional
Cell membrane [12] = experiment: Induction of cell membrane damage in Staphylococcus aureus assessed as change in morphology by measuring numerous blebs covered membrane at 4 times MIC incubated for 5 hrs by SEM analysis; type: cell membranes
Escherichia coli [13] = experiment: Antibacterial activity against Escherichia coli ATCC 25922 incubated for 18 hrs in presence of 150 mM NaCl by visual inspection method; type: functional
Acinetobacter baumannii [14] = experiment: Antibacterial activity against multidrug resistant Acinetobacter baumannii 5 incubated for 18 hrs by visual inspection method; type: functional
Escherichia coli [15] = experiment: Antibacterial activity against Escherichia coli ATCC 25922 incubated for 18 hrs in presence of 100 mM NaCl by visual inspection method; type: functional
Erythrocyte [16] = experiment: Hemolytic activity in rat erythrocytes at 500 to 1000 ug/ml incubated for 1 hr; type: toxicity, cell-based; settings: dose 500-1000 µg/ml
[17] = tested on: Staphylococcus epidermidis; experiment: Antibacterial activity against Staphylococcus epidermidis ATCC 12228 incubated for 18 hrs by visual inspection method; type: functional
Cell membrane [18] = experiment: Induction of inner membrane permeability in Escherichia coli ML-35 measured every 5 mins for 90 mins by ONPG dye based assay; type: cell membranes
Cell membrane [19] = experiment: Induction of cell membrane damage in Staphylococcus aureus assessed as change in morphology by measuring deformed membrane at 4 times MIC incubated for 5 hrs by SEM analysis; type: cell membranes
Cell membrane [20] = experiment: Induction of cell membrane damage in Escherichia coli at 4 times MIC incubated for 30 mins by PI staining based confocal laser scanning microscopic analysis; type: cell membranes
Bacillus subtilis = experiment: Antibacterial activity against Bacillus subtilis ATCC 23857 incubated for 18 hrs by visual inspection method; type: functional
Staphylococcus aureus [21] = experiment: Antibacterial activity against Staphylococcus aureus ATCC 25923 incubated for 18 hrs by visual inspection method; type: functional
Cell membrane [22] = experiment: Disruption of outer membrane integrity in Escherichia coli assessed as increase in fluorescence intensity by measuring NPN uptake at 1 to 4 times MIC by fluorescence based analysis; type: cell membranes; settings: TDE = time-dependent effect
Acinetobacter baumannii [23] = experiment: Antibacterial activity against multidrug resistant Acinetobacter baumannii 1 incubated for 18 hrs by visual inspection method; type: functional
Escherichia coli [24] = experiment: Antibacterial activity against ESBL Escherichia coli 5 incubated for 18 hrs by visual inspection method; type: functional
Acinetobacter baumannii [25] = experiment: Antibacterial activity against multidrug resistant Acinetobacter baumannii 3 incubated for 18 hrs by visual inspection method; type: functional
Staphylococcus aureus [26] = experiment: Antibacterial activity against Staphylococcus aureus ATCC 25923 incubated for 18 hrs in presence of 50 mM NaCl by visual inspection method; type: functional
Erythrocyte [27] = experiment: Hemolytic activity in rat erythrocytes incubated for 1 hr; type: toxicity, cell-based
[28] = Hemolytic activity in rat erythrocytes at 1000 ug/ml incubated for 1 hr; type: toxicity, cell-based, Erythrocyte; settings: at 1000 µg/mL, read-out: Activity
Escherichia coli [29] = experiment: Antibacterial activity against ESBL Escherichia coli 3 incubated for 18 hrs by visual inspection method; type: functional
Erythrocyte [30] = experiment: Hemolytic activity in rat erythrocytes at 250 ug/ml incubated for 1 hr; type: toxicity, cell-based; settings: dose 250 µg/ml
Acinetobacter baumannii [31] = experiment: Antibacterial activity against multidrug resistant Acinetobacter baumannii 4 incubated for 18 hrs by visual inspection method; type: functional
Klebsiella pneumoniae = experiment: Antibacterial activity against Klebsiella pneumoniae ATCC 700603 incubated for 18 hrs by visual inspection method; type: functional
Escherichia coli [32] = experiment: Antibacterial activity against Escherichia coli ATCC 25922 incubated for 18 hrs in presence of 50 mM NaCl by visual inspection method; type: functional
Cell membrane [33] = experiment: Induction of cell membrane damage in Staphylococcus aureus assessed as decrease in red/green fluorescence ratio at 2 times MIC by DiOC2(3) fluorescent probe based assay; type: cell membranes
Staphylococcus aureus [34] = experiment: Antibacterial activity against methicillin resistant Staphylococcus aureus 3 incubated for 18 hrs by visual inspection method; type: functional
Escherichia coli [35] = experiment: Antibacterial activity against ESBL Escherichia coli 2 incubated for 18 hrs by visual inspection method; type: functional
Escherichia coli [36] = experiment: Antibacterial activity against ESBL Escherichia coli 4 incubated for 18 hrs by visual inspection method; type: functional
Cell membrane [37] = experiment: Induction of inner membrane permeability in Escherichia coli ML-35 at 1 to 4 times MIC by ONPG dye based assay; type: cell membranes; settings: TDE = time-dependent effect
Cell membrane [38] = experiment: Induction of cell membrane damage in Escherichia coli assessed as change in morphology by measuring deformed membrane at 4 times MIC incubated for 5 hrs by SEM analysis; type: cell membranes
Staphylococcus aureus [39] = experiment: Antibacterial activity against Staphylococcus aureus ATCC 25923 incubated for 18 hrs in presence of 100 mM NaCl by visual inspection method; type: functional
Staphylococcus aureus [40] = experiment: Antibacterial activity against Staphylococcus aureus ATCC 25923 incubated for 18 hrs in presence of 150 mM NaCl by visual inspection method; type: functional
Cell membrane [41] = experiment: Induction of cell membrane damage in Staphylococcus aureus assessed as change in morphology by measuring roughened membrane at 4 times MIC incubated for 5 hrs by SEM analysis; type: cell membranes
Escherichia coli [42] = experiment: Antibacterial activity against Escherichia coli ATCC 25922 incubated for 18 hrs by visual inspection method; type: functional
Staphylococcus aureus [43] = experiment: Induction of resistance development against Staphylococcus aureus assessed as fold increase in MIC after 21 passages; type: functional
[44] = Stability in Sprague-Dawley rat serum at 62.5 ug/ml measured upto 480 mins by RP-HPLC method; type: ADME, cell-free; settings: 8 h, at 62.5 µg/mL

CC[C@H](C)[C@H](NC(=O)[C@H](Cc1c[nH]c2ccccc12)NC(=O)CNC(=O)[C@H](CCC(N)=O)NC(=O)[C@@H](N)CCCNC(=N)N)C(=O)N[C@@H](Cc1c[nH]c2ccccc12)C(=O)N[C@@H](Cc1ccc(O)cc1)C(=O)NCC(=O)N[C@@H](Cc1ccccc1)C(=O)N[C@@H](Cc1ccccc1)C(=O)N[C@@H](Cc1c[nH]c2ccccc12)C(=O)N[C@@H](CCCCN)C(=O)N[C@@H](CCCCN)C(N)=O (H-RQGWIWYGFFWKK-NH2)
30 µg/mL: MIC (Escherichia coli [3]) | MIC (Escherichia coli [13]) | MIC (Escherichia coli [15]) | MIC (Escherichia coli [24]) | MIC (Escherichia coli [29]) | MIC (Escherichia coli [32]) | MIC (Escherichia coli [35]) | MIC (Escherichia coli [36]) | MIC (Escherichia coli [42])
560.73 µg/mL: HC5 (Erythrocyte [27])
15 µg/mL: MIC (Acinetobacter baumannii [7]) | MIC (Acinetobacter baumannii [11]) | MIC (Acinetobacter baumannii [14]) | MIC (Acinetobacter baumannii [23]) | MIC (Acinetobacter baumannii [25]) | MIC (Acinetobacter baumannii [31])
3.75 µg/mL: MIC [17]
7.47%: hemolysis at 1 h, 1000 ug/ml [28]
Non-Toxic: Activity (Erythrocyte [30])
7.5 µg/mL: MIC (Staphylococcus aureus [1]) | MIC (Staphylococcus aureus [6]) | MIC (Staphylococcus aureus [10]) | MIC (Bacillus subtilis) | MIC (Staphylococcus aureus [21]) | MIC (Staphylococcus aureus [26]) | MIC (Staphylococcus aureus [34]) | MIC (Staphylococcus aureus [39]) | MIC (Staphylococcus aureus [40])
Toxic: Activity (Erythrocyte [16])
60 µg/mL: MIC (Klebsiella pneumoniae)
active: Activity (Cell membrane [2]) | Activity (Cell membrane [4]) | Activity (Cell membrane [5]) | Activity (Cell membrane [8]) Dose-Dependent Effect | Activity (Cell membrane [9]) Dose-Dependent Effect | Activity (Cell membrane [12]) | Activity (Cell membrane [18]) Dose-Dependent Effect | Activity (Cell membrane [19]) | Activity (Cell membrane [20]) | Activity (Cell membrane [22]) Tde | Activity (Cell membrane [33]) | Activity (Cell membrane [37]) Tde | Activity (Cell membrane [38]) | Activity (Cell membrane [41])

POLYMYXIN B
1.88 µg/mL: MIC (Escherichia coli [3]) | MIC (Acinetobacter baumannii [7]) | MIC (Acinetobacter baumannii [11]) | MIC (Acinetobacter baumannii [14]) | MIC (Acinetobacter baumannii [23]) | MIC (Escherichia coli [24]) | MIC (Acinetobacter baumannii [25]) | MIC (Escherichia coli [29]) | MIC (Acinetobacter baumannii [31]) | MIC (Klebsiella pneumoniae) | MIC (Escherichia coli [35]) | MIC (Escherichia coli [36]) | MIC (Escherichia coli [42])

O=C(O)c1cn(C2CC2)c2cc(N3CCNCC3)c(F)cc2c1=O
16: fold change (FC) (Staphylococcus aureus [43])

CC[C@H](C)[C@H](NC(=O)[C@@H](N)CCCNC(=N)N)C(=O)NCC(=O)N[C@@H](Cc1c[nH]c2ccccc12)C(=O)N[C@@H](CS)C(=O)N[C@@H](C)C(=O)N[C@@H](Cc1c[nH]c2ccccc12)C(=O)N[C@@H](CC(C)C)C(=O)N[C@@H](CC(C)C)C(=O)N[C@@H](CCCCN)C(=O)N[C@@H](CC(N)=O)C(=O)N[C@@H](CCCCN)C(=O)N[C@@H](C)C(N)=O (H-RIGWCAWLLKNKA-NH2)
15 µg/mL: MIC (Acinetobacter baumannii [7]) | MIC (Acinetobacter baumannii [11]) | MIC (Acinetobacter baumannii [14]) | MIC [17] | MIC (Bacillus subtilis) | MIC (Acinetobacter baumannii [23]) | MIC (Acinetobacter baumannii [25]) | MIC (Acinetobacter baumannii [31])
30 µg/mL: MIC (Escherichia coli [3]) | MIC (Escherichia coli [13]) | MIC (Escherichia coli [15]) | MIC (Escherichia coli [24]) | MIC (Escherichia coli [29]) | MIC (Escherichia coli [32]) | MIC (Escherichia coli [35]) | MIC (Escherichia coli [36]) | MIC (Escherichia coli [42])
Toxic: Activity (Erythrocyte [16])
Non-Toxic: Activity (Erythrocyte [30])
60 µg/mL: MIC (Staphylococcus aureus [1]) | MIC (Staphylococcus aureus [6]) | MIC (Staphylococcus aureus [10]) | MIC (Staphylococcus aureus [21]) | MIC (Staphylococcus aureus [26]) | MIC (Klebsiella pneumoniae) | MIC (Staphylococcus aureus [34]) | MIC (Staphylococcus aureus [39]) | MIC (Staphylococcus aureus [40])
8.18%: hemolysis at 1 h, 1000 ug/ml [28]
779.41 µg/mL: HC5 (Erythrocyte [27])
active: Activity (Cell membrane [2]) | Activity (Cell membrane [4]) | Activity (Cell membrane [5]) | Activity (Cell membrane [8]) Dose-Dependent Effect | Activity (Cell membrane [9]) Dose-Dependent Effect | Activity (Cell membrane [12]) | Activity (Cell membrane [18]) Dose-Dependent Effect | Activity (Cell membrane [19]) | Activity (Cell membrane [20]) | Activity (Cell membrane [22]) Tde | Activity (Cell membrane [33]) | Activity (Cell membrane [37]) Tde | Activity (Cell membrane [38]) | Activity (Cell membrane [41])
Unstable: Stability [44]
